Biological target: T1, α4β1 integrin (Homo sapiens, UniProt P05556+P13612)
T1 construct: endogenous in cells; host or cells: Ramos cells
Experiment: Adhesion of calcein-labeled Ramos cells to CS1 (fibronectin) peptide conjugated ovalbumin
Assay type: cell-based
Settings: Table 2; Ramos cell adhesion to CS1 conjugated ovalbumin, 30 minutes at 37° C.
In short: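 Calcein AM-labelled Ramos cells (2.5×10^5/well) with compound, up to 100 μM, added to plates coated with CS1 peptide–ovalbumin (0.5 μg/ml) and blocked with 3% BSA. Binding buffer TBS pH 7.5 with 1 mM each MgCl2, CaCl2, MnCl2; 30 min, 37 °C. After washes, adherent cells lysed and read fluorometrically; […].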

T1 sequence (P13612 34-1032): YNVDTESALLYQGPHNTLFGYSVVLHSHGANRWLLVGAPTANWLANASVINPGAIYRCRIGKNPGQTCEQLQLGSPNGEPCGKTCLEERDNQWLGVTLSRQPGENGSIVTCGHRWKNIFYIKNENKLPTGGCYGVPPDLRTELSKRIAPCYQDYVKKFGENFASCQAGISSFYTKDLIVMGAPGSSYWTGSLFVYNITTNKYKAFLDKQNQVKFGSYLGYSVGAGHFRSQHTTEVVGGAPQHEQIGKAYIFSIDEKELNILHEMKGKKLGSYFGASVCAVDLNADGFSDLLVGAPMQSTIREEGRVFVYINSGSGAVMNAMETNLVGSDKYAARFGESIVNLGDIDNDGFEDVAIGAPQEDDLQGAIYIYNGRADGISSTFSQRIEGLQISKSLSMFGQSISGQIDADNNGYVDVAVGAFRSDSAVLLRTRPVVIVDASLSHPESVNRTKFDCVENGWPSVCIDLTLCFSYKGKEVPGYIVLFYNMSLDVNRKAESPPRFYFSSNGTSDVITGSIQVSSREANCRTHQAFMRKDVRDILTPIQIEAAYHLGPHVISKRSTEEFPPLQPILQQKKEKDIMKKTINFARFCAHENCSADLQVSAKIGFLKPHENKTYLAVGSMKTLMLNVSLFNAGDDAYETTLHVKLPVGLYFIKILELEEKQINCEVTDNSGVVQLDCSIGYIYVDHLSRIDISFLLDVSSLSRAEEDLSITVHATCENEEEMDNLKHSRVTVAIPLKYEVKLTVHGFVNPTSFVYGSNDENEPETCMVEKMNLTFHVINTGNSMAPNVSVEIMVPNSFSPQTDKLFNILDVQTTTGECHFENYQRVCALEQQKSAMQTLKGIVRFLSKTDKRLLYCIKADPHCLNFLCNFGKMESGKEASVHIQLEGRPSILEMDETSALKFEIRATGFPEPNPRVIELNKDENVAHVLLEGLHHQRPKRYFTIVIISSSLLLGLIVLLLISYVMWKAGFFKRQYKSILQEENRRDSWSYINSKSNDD
T1 sequence (P05556 21-798): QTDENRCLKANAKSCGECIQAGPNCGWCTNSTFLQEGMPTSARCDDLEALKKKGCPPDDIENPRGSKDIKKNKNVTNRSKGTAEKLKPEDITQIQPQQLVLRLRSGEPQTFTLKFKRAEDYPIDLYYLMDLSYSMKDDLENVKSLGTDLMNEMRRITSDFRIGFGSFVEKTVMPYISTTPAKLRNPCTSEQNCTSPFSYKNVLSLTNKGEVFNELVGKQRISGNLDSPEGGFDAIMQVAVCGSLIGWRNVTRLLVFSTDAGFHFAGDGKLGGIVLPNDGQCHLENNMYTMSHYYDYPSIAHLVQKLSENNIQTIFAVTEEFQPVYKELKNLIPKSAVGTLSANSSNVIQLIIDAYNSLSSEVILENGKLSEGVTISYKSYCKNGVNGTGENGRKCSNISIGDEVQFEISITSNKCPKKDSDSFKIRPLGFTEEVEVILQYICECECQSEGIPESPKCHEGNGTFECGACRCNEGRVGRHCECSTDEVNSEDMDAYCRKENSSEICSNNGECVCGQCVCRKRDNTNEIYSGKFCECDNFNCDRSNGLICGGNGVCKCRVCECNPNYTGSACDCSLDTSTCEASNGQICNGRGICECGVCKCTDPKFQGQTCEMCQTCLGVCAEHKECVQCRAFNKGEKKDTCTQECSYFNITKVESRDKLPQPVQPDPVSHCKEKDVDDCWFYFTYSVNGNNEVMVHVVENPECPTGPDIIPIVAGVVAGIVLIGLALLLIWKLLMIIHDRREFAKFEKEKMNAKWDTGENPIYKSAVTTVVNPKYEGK

Compound | IC50 [nM]
O=C(O)C[C@H](NC(=O)N[C@H]1CCCN(Cc2cccs2)C1=O)c1ccc2c(c1)OCO2 [(3S)-3-(1,3-benzodioxol-5-yl)-3-[({[(3S)-2-oxo-1-(2-thienylmethyl)hexahydro-3-pyridinyl]amino}carbonyl)amino]propanoic acid] | 200

Same assay, conditions: Table 3; Ramos cell adhesion to CS1 conjugated ovalbumin, 30 minutes at 37° C.

Compound | IC50 [nM]
O=C(O)C[C@H](NC(=O)Nc1c(O)ccn(Cc2ccccc2Cl)c1=O)c1ccccc1 [(3S)-3-{[({1-[(2-chlorophenyl)methyl]-4-hydroxy-2-oxo-1,2-dihydro-3-pyridinyl}amino)carbonyl]amino}-3-phenylpropanoic acid] | 10
Cc1ccc([C@H](CC(=O)O)NC(=O)Nc2c(C)ccn(Cc3ccccc3)c2=O)cc1 | 30
Cc1ccn(Cc2ccccc2Cl)c(=O)c1NC(=O)N[C@H](C)CC(=O)O | 300
CC(C)(C)c1ccc([C@H](CC(=O)O)NC(=O)Nc2c(O)ccn(Cc3ccccc3Cl)c2=O)cc1 | 400
O=C(O)C[C@H](NC(=O)Nc1c(O)ccn(Cc2ccccc2Cl)c1=O)c1ccc(C(F)(F)F)cc1 | 25
Cc1ccc([C@H](CC(=O)O)NC(=O)Nc2c(N3CCOCC3)ccn(Cc3ccccc3Cl)c2=O)cc1 | 1
O=C(O)CC(NC(=O)Nc1c(O)ccn(Cc2ccccc2Cl)c1=O)c1cccc(Cl)c1 (stereo not drawn) | 30

Further lines, results first:

IC50 [nM] | Compound
20 | Cc1ccc([C@H](CC(=O)O)NC(=O)Nc2c(Cl)ccn(Cc3ccccc3Cl)c2=O)cc1
15 | Cc1ccc([C@H](CC(=O)O)NC(=O)Nc2c(F)ccn(Cc3ccccc3Cl)c2=O)cc1

Same assay, conditions: Table 4; Ramos cell adhesion to CS1 conjugated ovalbumin, 30 minutes at 37° C.

Compound | IC50 [nM]
Cc1ccc([C@H](CC(=O)O)NC(=O)Nc2cccn(Cc3c(C)cc(C)cc3C)c2=O)cc1 | 2500
O=C(O)C[C@H](NC(=O)Nc1cccn(Cc2ccccc2)c1=O)c1ccc2c(c1)OCO2 | 500
O=C(O)C[C@H](NC(=O)Nc1cccn(Cc2cccs2)c1=O)c1ccccc1 | 1000
Cc1ccc([C@H](CC(=O)O)NC(=O)Nc2cccn(Cc3ccc(Cl)cc3Cl)c2=O)cc1 | 400
COc1ccc([C@H](CC(=O)O)NC(=O)Nc2cccn(Cc3ccccc3Cl)c2=O)cc1C | 40
Cc1ccc([C@H](CC(=O)O)NC(=O)Nc2cccn(Cc3cc(NS(C)(=O)=O)ccc3Br)c2=O)cc1 | 250
O=C(O)C[C@H](NC(=O)Nc1cccn(Cc2cccc(Cl)c2)c1=O)c1ccc2c(c1)OCO2 | 800
O=C(O)C[C@H](NC(=O)Nc1c(O)ccn(Cc2ccccc2Cl)c1=O)c1ccc(OC(F)(F)F)cc1 | 15
O=C(O)C[C@H](NC(=O)Nc1cccn(Cc2ccccc2Cl)c1=O)c1ccc2c(c1)CCO2 | 40
O=C(O)CC(NC(=O)Nc1c(O)ccn(Cc2ccccc2Cl)c1=O)c1cccc(Cl)c1 (stereo not drawn) | 30

Results, then the compound that gave them:

IC50 [nM] | Compound
200 | COc1cccc(Cn2cccc(NC(=O)N[C@@H](CC(=O)O)c3ccc(C)cc3)c2=O)c1
3000 | Cc1ccccc1[C@H](CC(=O)O)NC(=O)Nc1cccn(Cc2ccccc2Cl)c1=O
150 | Cc1ccc([C@H](CC(=O)O)NC(=O)Nc2cccn(Cc3cc(C)ccc3C)c2=O)cc1

Same assay, conditions: Table 5; Ramos cell adhesion to CS1 conjugated ovalbumin; dose required to give 50% inhibition

Compound | IC50 [nM]
Cc1ccc(C)c([C@H](CC(=O)O)NC(=O)Nc2c(O)ccn(Cc3ccccc3Cl)c2=O)c1 | 50
Cc1ccc([C@H](CC(=O)O)NC(=O)Nc2c(O)c(C)cn([C@H](C)c3ccccc3)c2=O)cc1 | 4000
Cc1ccc([C@H](CC(=O)O)NC(=O)Nc2c(O)c3c(n(Cc4ccccc4Cl)c2=O)CCCCC3)cc1 | 120
Cc1ccc([C@H](CC(=O)O)NC(=O)Nc2c(O)ccn(Cc3ccc(F)cc3F)c2=O)cc1 | 30

Continued, values first:

IC50 [nM] | Compound
0.8 | CCOc1ccc([C@H](CC(=O)O)NC(=O)Nc2c(O)ccn(Cc3ccccc3Cl)c2=O)cc1OCC [(3S)-3-[({[1-(2-chlorobenzyl)-4-hydroxy-2-oxo-1,2-dihydropyridin-3-yl]amino}carbonyl)amino]-3-(3,4-diethoxyphenyl)propanoic acid]
30 | Cc1ccc([C@H](CC(=O)O)NC(=O)Nc2c(O)ccn(Cc3ccccc3S(=O)(=O)N(C)C)c2=O)cc1
15 | CCOc1cccc([C@H](CC(=O)O)NC(=O)Nc2c(O)c(C)c(C)n(Cc3c(C)cccc3Cl)c2=O)c1
25 | CCc1c(O)c(NC(=O)N[C@@H](CC(=O)O)c2ccc(C)cc2)c(=O)n(Cc2ccccc2Cl)c1C
60 | Cc1ccc([C@H](CC(=O)O)NC(=O)Nc2c(O)ccn(Cc3ccc(Cl)cc3Cl)c2=O)cc1
20 | COc1ccc(Cn2ccc(O)c(NC(=O)N[C@@H](CC(=O)O)c3ccc(C)cc3)c2=O)cc1
220 | O=C(O)C[C@H](NC(=O)Nc1c(O)ccn(Cc2ccccc2Cl)c1=O)c1cc(C(F)(F)F)cc(C(F)(F)F)c1

Same assay, conditions: Table 6; Ramos cell adhesion to CS1 conjugated ovalbumin, 30 minutes at 37° C.

Compound | IC50 [nM]
CCOc1cccc(Cl)c1Cn1cc(C)c(O)c(NC(=O)N[C@@H](CC(=O)O)c2cccc(OC(C)C)c2)c1=O [(3S)-3-[({[1-(2-chloro-6-ethoxybenzyl)-4-hydroxy-5-methyl-2-oxo-1,2-dihydropyridin-3-yl]amino}carbonyl)amino]-3-(3-isopropoxyphenyl)propanoic acid] | 4
CCCc1cn(Cc2c(Cl)cccc2OC)c(=O)c(NC(=O)N[C@@H](CC(=O)O)c2ccc(OCC)c(OCC)c2)c1O | 3
O=C(O)CC(NC(=O)Nc1c(O)ccn(Cc2ccccc2Cl)c1=O)c1ccc2ccccc2n1 (stereo not drawn) | 105

The next lines start with the values.

IC50 [nM] | Compound
115 | Cc1cc(C(CC(=O)O)NC(=O)Nc2c(O)ccn(Cc3ccccc3Cl)c2=O)oc1C (stereo not drawn)
18 | Cc1ccc([C@H](CC(=O)O)NC(=O)Nc2c(O)c(C)nn(Cc3ccccc3Cl)c2=O)cc1
3 | Cc1cn(Cc2ccccc2Cl)c(=O)c(NC(=O)N[C@@H](CC(=O)O)c2ccc3c(ccn3C)c2)c1O
5 | COc1ccc2cc([C@H](CC(=O)O)NC(=O)Nc3c(O)c(C)cn(Cc4ccccc4Cl)c3=O)ccc2c1
3 | COc1cccc(Cl)c1Cn1cc(C)c(O)c(NC(=O)N[C@@H](CC(=O)O)c2ccc(C)c(C)c2)c1=O

Same assay, conditions: Table 7; Ramos cell adhesion to CS1 conjugated ovalbumin; dose required to give 50% inhibition

Compound | IC50 [nM]
Cc1ccc([C@@H](NC(=O)Nc2c(O)c(C)cn(Cc3ccccc3Cl)c2=O)[C@H](C)C(=O)O)cc1 | 1500
Cn1ccc2cc([C@H](CC(=O)O)NC(=O)Nc3c(O)c4c(n(Cc5ccccc5Cl)c3=O)CCC4)ccc21 [(3S)-3-[({[1-(2-chlorobenzyl)-4-hydroxy-2-oxo-2,5,6,7-tetrahydro-1H-cyclopenta[b]pyridin-3-yl]amino}carbonyl)amino]-3-(1-methyl-1H-indol-5-yl)propanoic acid] | 4
O=C(O)C[C@H](NC(=O)Nc1c(O)c2c(n(Cc3ccccc3Cl)c1=O)CCC2)c1ccc(OC(F)F)cc1 | 13
Cc1cccc(Cl)c1Cn1c2c(c(O)c(NC(=O)N[C@@H](CC(=O)O)c3cccc(OC4CCC4)c3)c1=O)CCC2 | 20
Cc1cccc(Cl)c1Cn1c2c(c(O)c(NC(=O)N[C@@H](CC(=O)O)c3ccc(Cl)c(OC(C)C)c3)c1=O)CCC2 | 23
Cc1cccc(Cl)c1Cn1c2c(c(O)c(NC(=O)N[C@@H](CC(=O)O)c3ccc(C4CC4)cc3)c1=O)CCC2 | 19
Cc1ccc([C@H](CC(=O)O)NC(=O)Nc2c(O)c(C)cn(Cc3cc(F)ccc3Cl)c2=O)cc1 | 5
CCOc1cccc(Cl)c1Cn1cc(C)c(O)c(NC(=O)N[C@@H](CC(=O)O)c2ccc3ccn(C)c3c2)c1=O [(3S)-3-[({[1-(2-chloro-6-ethoxybenzyl)-4-hydroxy-5-methyl-2-oxo-1,2-dihydropyridin-3-yl]amino}carbonyl)amino]-3-(1-methyl-1H-indol-6-yl)propanoic acid] | 3
CCc1ccc([C@H](CC(=O)O)NC(=O)Nc2c(O)c(C)cn(Cc3ccccc3Cl)c2=O)cc1 | 30
CCOc1ccc(Cl)c(Cl)c1Cn1c2c(c(O)c(NC(=O)N[C@@H](CC(=O)O)c3cccc(OCC4CC4)c3)c1=O)CCC2 | 7
Cc1cc(C)cc([C@H](CC(=O)O)NC(=O)Nc2c(O)c3c(n(Cc4ccccc4Cl)c2=O)CCC3)c1 [(3S)-3-[({[1-(2-chlorobenzyl)-4-hydroxy-2-oxo-2,5,6,7-tetrahydro-1H-cyclopenta[b]pyridin-3-yl]amino}carbonyl)amino]-3-(3,5-dimethylphenyl)propanoic acid] | 9
CCCc1ccc([C@H](CC(=O)O)NC(=O)Nc2c(O)c3c(n(Cc4c(C)cccc4Cl)c2=O)CCC3)cc1 | 20
CCOc1cccc(Cl)c1Cn1cc(C2CC2)c(O)c(NC(=O)N[C@@H](CC(=O)O)c2cccc(OC(C)C)c2)c1=O [(3S)-3-[({[1-(2-chloro-6-ethoxybenzyl)-5-cyclopropyl-4-hydroxy-2-oxo-1,2-dihydropyridin-3-yl]amino}carbonyl)amino]-3-(3-isopropoxyphenyl)propanoic acid] | 3
CCCOc1cccc([C@H](CC(=O)O)NC(=O)Nc2c(O)c(C)cn(Cc3c(Cl)cccc3OCC)c2=O)c1 | 3
Cc1ccccc1-c1ccc([C@H](CC(=O)O)NC(=O)Nc2c(O)c(C)cn(Cc3ccccc3Cl)c2=O)cc1 | 55

Other lines, results leading:

IC50 [nM] | Compound
22 | CCc1nn(Cc2ccccc2Cl)c(=O)c(NC(=O)N[C@@H](CC(=O)O)c2ccc(C)cc2)c1O
3 | CCN(CC)c1cccc([C@H](CC(=O)O)NC(=O)Nc2c(O)c3c(n(Cc4ccccc4Cl)c2=O)CCC3)c1 [(3S)-3-{[({1-[(2-chlorophenyl)methyl]-4-hydroxy-2-oxo-2,5,6,7-tetrahydro-1H-cyclopenta[b]pyridin-3-yl}amino)carbonyl]amino}-3-[3-(diethylamino)phenyl]propanoic acid]
10 | Cc1cn(Cc2ccccc2Cl)c(=O)c(NC(=O)NC(CC(=O)O)c2cccc(N3CCCC3)c2)c1O (stereo not drawn)
11 | COc1c(C)cc([C@H](CC(=O)O)NC(=O)Nc2c(O)c3c(n(Cc4ccccc4Cl)c2=O)CCC3)cc1C
2 | CCOc1cccc(Cl)c1Cn1c2c(c(O)c(NC(=O)N[C@@H](CC(=O)O)c3ccc4cc(OC)ccc4c3)c1=O)CCC2
25 | Cc1cn(Cc2ccccc2Cl)c(=O)c(NC(=O)N[C@@H](CC(=O)O)c2cccc(-c3ccccc3F)c2)c1O

— patent US6972296B2, “Carboxylic acid derivatives that inhibit the binding of integrins to their receptors” (Encysive Pharmaceuticals Inc., priority 1999, dated 2005)
